Test results published in patent US20220251109A1, “OXAAZAQUINAZOLINE-7(8H)-KETONE COMPOUND, PREPARATION METHOD THEREFOR AND PHARMACEUTICAL APPLICATION THEREOF” (GENFLEET THERAPEUTICS (SHANGHAI) INC., priority 2019, published 2022).
pIC50: −log10 of the molar value. Where two headings read alike, the source gives them in different places.

How the values were obtained:
Assay type in all cases: cell-based, human
[1] = system: NCI-H358 cells (Kras G12C mutation); experiment: Cell proliferation inhibition experiment, 3D model, CellTiter-Glo (NCI-H358); conditions: NCI-H358, 3D sphere plate, 5 days, 2% FBS
Procedure: (§1) NCI-H358 was a human non-small cell lung cancer cell line with Kras G12C mutation, cultured in 10% FBS RPMI-1640 medium; A549 was a human lung adenocarcinoma cell line with Kras G12S mutation, cultured in 10% FBS F-12K medium. The cells in the logarithmic growth phase was taken, digested with trypsin EDTA, collected and counted, and H358 was adjusted to 1.8E4 cells/ml using 2% FBS RPMI-1640 medium, and A549 was adjusted to 8.9E3 cells/ml using 2% FBS F-12K medium; 800 (45 μl) H358 or 400 (45 μl) A549 cells were seeded in a 384-well sphere plate respectively, cultured overnight to establish a 3D cell model. DMSO was used to prepare 1000× compound 3.16-fold gradient concentration stock solution, and 2% FBS medium was used to dilute 100-fold to 10× compound stock solution. On the second day after cell seeding, 5 μl 10× compound stock solution was added to each cell culture well, the final concentration was 1×, and DMSO content was 0.1%. DMSO was used as the experimental control (control) and 2% FBS medium as the blank control (blank). After the compound and cells were added and cultured for 5 days, 25 μl CellTiter-Glo working solution was added to each well, mixed at 400 rpm and incubated for 30 minutes. After 30 minutes at room temperature, 40 μl of the mixture was transferred to a 384-well plate with a non-transparent white bottom, the luminescence chemiluminescence value was read, and the cells proliferation inhibition rate IR (%)=(RLU control-RLU compound)/(RLU control-RLU blank)×100% was calculated, Prism 6 four-parameter method was used to fit the compound's gradient dilution concentration and the corresponding cell proliferation inhibition rate, and the IC50 value was calculate.

[2] = system: A549 cells (Kras G12S mutation); experiment: Cell proliferation inhibition experiment, 3D model, CellTiter-Glo (A549); conditions: A549, 3D sphere plate, 5 days, 2% FBS
Procedure: as §1

[3] = system: p-ERK in MIA PaCa2 cells (Kras G12C mutation); experiment: Cell p-ERK detection experiment (HTRF) in MIA PaCa2 cells; conditions: compound 2 hours
Procedure: MIA PaCa2 was a human pancreatic cancer cell line with Kras G12C mutation, cultured in 10% FBS+2.5% Horse serum DMEM medium. The cells in the logarithmic growth phase were taken, digested with enzyme EDTA, collected, counted and 2.5E4 cells were seeded in a 96-well cell culture plate, cultured overnight. DMSO was used to prepare 1000× compound 3.16-fold gradient concentration stock solution, and medium was used to dilute 200-fold to 5× compound stock solution. On the second day after cell seeding, 5× compound stock solution was added to each cell culture well, the final concentration was 1×, and DMSO content was 0.1%. DMSO was used as an experimental control (control). After the compound was added and cultured for two hours, the remaining medium was removed. 50 ul cell lysis buffer was added to each well, mixed and incubated for 30 minutes, then 16 ul of the mixture was transferred to a 96-well plate with a non-transparent white bottom, and 16 ul cell lysis buffer was added to blank wells. After the completion of the transfer, 4 ul p-ERK HTRF antibody mixture was added to each well, incubated for 4 hours and the fluorescence value was read. The compound inhibition rate IR (%)=(RLU control-RLU compound)/(RLU control-RLU blank)×100% was calculated, Prism 8 four-parameter method was used to fit the compound's gradient dilution concentration and the corresponding cell proliferation inhibition rate, and the IC50 value was calculate.

[4] = system: MIA PaCa-2 cells (Kras G12C mutation); experiment: Cell proliferation inhibition experiment, 3D model, CellTiter-Glo (MIA PaCa-2); conditions: MIA PaCa-2, 3D sphere plate, 5 days, read-out: MIA-PaCa2 IC50
Procedure: MIA PaCa2 was a human pancreatic cancer cell line with Kras G12C mutation, cultured in 10% FBS+2.5% Horse serum DMEM medium; A549 was a human lung adenocarcinoma cell line with Kras G12S mutation, cultured in 10% FBS F-12K medium. The cells in the logarithmic growth phase were taken, digested with enzyme EDTA, collected, counted and 200 MIA PaCa-2 or 400 A549 cells were seeded in a 384-well sphere plate respectively, cultured overnight to establish a 3D cell model. DMSO was used to prepare 1000× compound 3.16-fold gradient concentration stock solution, and medium was used to dilute 100-fold to 10× compound stock solution. On the second day after cell seeding, 10× compound stock solution was added to each cell culture well, the final concentration was 1×, and DMSO content was 0.1%. DMSO was used as an experimental control (control), medium as the blank control (blank). After the compound and cells were added and cultured for 5 days, 30 μl CellTiter-Glo working solution was added to each well, mixed and incubated for 30 minutes. After 30 minutes at room temperature, 40 μl of the mixture was transferred to a 384-well plate with a non-transparent white bottom, the luminescence chemiluminescence value was read, and the cells proliferation inhibition rate IR (%)=(RLU control-RLU compound)/(RLU control-RLU blank)×100% was calculated, XLFit four-parameter method was used to fit the compound's gradient dilution concentration and the corresponding cell proliferation inhibition rate, and the IC50 value was calculate.

[5] = Homo sapiens, MIA PaCa-2, 120 h

Row | SMILES | pIC50 [1] | pIC50 ([2]; Homo sapiens, A549, 120 h) | pIC50 [3] | pIC50 ([1]; Homo sapiens, NCI-H358, 120 h) | pIC50 ([3]; Homo sapiens, MIA PaCa-2, 2 h) | pIC50 [4] | pIC50 [2] | pIC50 [4, 5]
1 | C=CC(=O)N1CCN2c3nc(=O)n(-c4c(C)ccnc4C(C)C)c4nc(-c5ccc(F)cc5F)c(Cl)c(c34)OC[C@H]2C1 (single isomer, unassigned) [Compound Z76-1] | 7.40 | < 5.00 | 6.96 | – | – | – | – | –
2 | C=CC(=O)N1CCN2c3nc(=O)n(-c4c(C)ccnc4C(C)C)c4nc(-c5cc(O)ccc5F)c(Cl)c(c34)OC[C@H]2C1 [Compound Z118] | – | < 4.52 | – | 7.72 | 6.78 | – | – | –
3 | C=CC(=O)N1CCN2c3nc(=O)n(-c4c(C)ccnc4C(C)C)c4nc(-c5ccccc5F)c(Cl)c(c34)OC[C@H]2C1 (single isomer, unassigned) [Compound Z87-1] | 7.33 | 4.99 | 6.80 | – | – | – | – | –
4 | C=CC(=O)N1CCN2c3nc(=O)n(-c4c(C)ccnc4C(C)C)c4nc(-c5c(F)cccc5OC)c(Cl)c(c34)OC[C@H]2C1 [Compound Z75] | – | < 5.00 | – | 8.70 | 6.95 | – | – | –
5 | C=CC(=O)N1CCN2c3nc(=O)n(-c4ccccc4C(C)C)c4cc(-c5c(C)ccc6[nH]ncc56)c(Cl)c(c34)OC[C@@H]2C1 (single isomer, unassigned) [Compound Z20-2] | 7.34 | – | – | – | – | 6.76 | 5.23 | –
6 | Cc1ccnc(C(C)C)c1-n1c(=O)nc2c3c(c(Cl)c(-c4ccccc4F)nc31)OC[C@H]1CN(C(=O)/C=C/CN(C)C)CCN21 (single isomer, unassigned) [Compound Z237-2] | – | < 4.52 | – | 7.33 | – | – | – | 7.32
7 | C=CC(=O)N1CCN2c3nc(=O)n(-c4c(C)ccnc4C(C)C)c4nc(-c5ccccc5F)c(Cl)c(c34)OC[C@@H]2C1 [Compound Z46] | – | < 5.00 | – | 8.30 | – | – | – | 7.70
8 | C=CC(=O)N1CCN2c3nc(=O)n(C4CC4)c4cc(-c5c(C)ccc6[nH]ncc56)c(Cl)c(c34)OC[C@@H]2C1 [Compound Z17] | – | 4.64 | – | 7.20 | – | – | – | 7.26
9 | C=CC(=O)N1CCN2c3nc(=O)n(-c4c(C)ccnc4C(C)C)c4nc(-c5cc(F)ccc5O)c(Cl)c(c34)OC[C@@H]2C1 [Compound Z55] | – | < 5.00 | – | 8.05 | – | – | – | 7.59
10 | C=CC(=O)N1CCN2c3nc(=O)n(-c4c(C)ccnc4C(C)C)c4nc(-c5c(O)cccc5F)c(Cl)c(c34)OC[C@@H]2C1 [Compound Z24, (5 aS)-7-acryloyl-3-chloro-2-(2-fluoro-6-hydroxyphenyl)-12-(2-isopropyl-4-methylpyridin-3-yl)-5,5a,6,7,8,9-hexahydro-4-oxo-1,7,9a,10,12-pentazabenzo[4,5] cyclohepta[1,2,3-de]naphthalen-11 (12H)-one] | 8.10 | 4.98 | – | – | – | – | – | 8.05
11 | C=CC(=O)N1CCN2c3nc(=O)n(-c4ccccc4C(C)C)c4cc(-c5c(C)ccc6[nH]ncc56)c(Cl)c(c34)OC[C@@H]2C1 (single isomer, unassigned) [Compound Z20-1] | 8.00 | – | – | – | – | 7.77 | 4.91 | –
12 | C=CC(=O)N1CCN2c3nc(=O)n(-c4c(C)ccnc4C(C)C)c4cc(-c5c(O)cccc5F)cc(c34)OC[C@@H]2C1 (single isomer, unassigned) [Compound Z15-1] | 7.77 | – | – | – | – | 7.70 | 4.65 | –
13 | C=CC(=O)N1CCN2c3nc(=O)n(-c4c(C)ccnc4C(C)C)c4cc(-c5c(C)ccc6[nH]ncc56)c(Cl)c(c34)OC[C@H]2C1 (single isomer, unassigned) [Compound Z30-2] | 8.70 | – | – | – | – | 8.30 | 4.68 | –
14 | C=CC(=O)N1CCN2c3nc(=O)n(-c4c(C)ccnc4C(C)C)c4cc(-c5c(O)cccc5F)c(Cl)c(c34)OC[C@H]2C1 (single isomer, unassigned) [Compound Z29-2] | 8.30 | – | – | – | – | 8.22 | < 5.00 | –
15 | C=CC(=O)N1CCN2c3nc(=O)n(-c4ccccc4C(C)C)c4cc(-c5c(C)ccc6[nH]ncc56)c(Cl)c(c34)OC[C@@H]2C1 (single isomer, unassigned) [Compound Z20-4] | 7.59 | – | – | – | – | 7.29 | 5.57 | –
16 | C=CC(=O)N1CCN2c3nc(=O)n(-c4c(C(C)C)ncnc4C(C)C)c4nc(-c5c(O)cccc5F)c(F)c(c34)OC[C@H]2C1 [Compound Z98] | – | < 5.00 | – | 9.00 | – | – | – | 8.70
17 | C=CC(=O)N1CCN2c3nc(=O)n(-c4c(C)ccnc4C(C)C)c4cc(-c5c(C)ccc6[nH]ncc56)c(Cl)c(c34)OC[C@@H]2C1 (single isomer, unassigned) [Compound Z26-2] | 9.00 | – | – | – | – | 8.40 | < 5.00 | –
18 | C=CC(=O)N1CCN2c3nc(=O)n(-c4c(C)ccnc4C(C)C)c4cc(-c5c(O)cccc5F)cc(c34)OC[C@H]2C1 [Compound Z16, (R)-2-acryloyl-10-(2-fluoro-6-hydroxyphenyl)-8-(2-isopropyl-4-methylpyridin-3-yl)-1,2,3,4,13,13a-hexahydropyrazino[2′,1′:3,4][1,4]oxazepine[5,6,7-de]quinazolin-7 (8H)-one] | – | < 5.00 | – | 7.39 | – | – | – | 7.54
19 | C=CC(=O)N1CCN2c3nc(=O)n(-c4c(C)ccnc4C4CC4)c4nc(-c5ccccc5F)c(Cl)c(c34)OC[C@H]2C1 (single isomer, unassigned) [Compound Z102-1] | 8.40 | 4.88 | – | – | – | 8.40 | – | –
20 | C=CC(=O)N1CCN2c3nc(=O)n(-c4c(C)ncnc4C(C)C)c4nc(-c5c(O)cccc5F)c(F)c(c34)OC[C@H]2C1 (single isomer, unassigned) [Compound Z101-2] | 8.52 | – | – | – | – | 8.52 | < 5.00 | –
21 | C=CC(=O)N1CCN2c3nc(=O)n(-c4c(C)ncnc4C4CC4)c4nc(-c5cccc(F)c5F)c(Cl)c(c34)OC[C@H]2C1 [Compound Z106] | – | < 4.52 | – | 8.40 | – | – | – | 8.15
22 | C=CC(=O)N1CCN2c3nc(=O)n(-c4c(C)ccnc4C(C)C)c4nc(-c5cccc(C(F)(F)F)c5F)c(Cl)c(c34)OC[C@@H]2C1 [Compound Z57] | 8.30 | < 5.00 | – | – | – | – | – | 7.66
23 | C=CC(=O)N1CCN2c3nc(=O)n(-c4c(C)ccnc4C(C)C)c4nc(-c5cc(Cl)ccc5F)c(Cl)c(c34)OC[C@@H]2C1 [Compound Z59] | – | < 5.00 | – | 8.22 | – | – | – | 7.59
24 | C=CC(=O)N1CCN2c3nc(=O)n(-c4c(C)ccnc4C(C)C)c4cc(-c5c(O)cccc5F)c(Cl)c(c34)OC[C@@H]2C1 [Compound Z31] | – | 4.91 | – | 7.33 | – | – | – | 7.60
